Data from paper PMC11005426 (mBio, 2024).

Target: T1, ASFV topo II ATPase domain (African swine fever virus, UniProt A0A2X0THW2)
T1 construct: gene P1192R CDS
Conditions: Mg2+; ATP-binding site; 0.5 mM AMPPNP, 5 mM MgCl2, HEPES pH 7.5

## Nc1ncnc2c1ncn2[C@@H]1O[C@H](COP(=O)(O)OP(=O)(O)NP(=O)(O)O)[C@@H](O)[C@H]1O [AMPPNP]
  X-ray crystal structure, 2.20 A: crystal structure of the isolated ATPase domain from ASFV topo II in complex with AMPPNP
